Experimental data published in ChEMBL document CHEMBL1157941, “Sapinmusaponins F-J, bioactive tirucallane-type saponins from the galls of Sapindus mukorossi” (J Nat Prod, 2006).

What was measured:
[1] = system: Raji; test: Inhibition of 12-O-tetradecanoylphorbol-13-acetate induced EBV-early antigen activation in human Raji cells assessed as EA activation at 100 molar ratio after 48 hrs relative to TPA; assay type: cell-based; set-up: scale not given: the % may be the effect or the level left; details: human gammaherpesvirus 4
[2] = system: Platelet; test: Inhibition of thrombin-induced platelet aggregation in citreated rabbit platelet-rich plasma by turbidimetric method; assay type: functional; details: Oryctolagus cuniculus
[3] = system: Platelet; test: Inhibition of […]-induced platelet aggregation in citreated rabbit platelet-rich plasma by turbidimetric method; assay type: functional; details: Oryctolagus cuniculus
[4] = Cytotoxicity against rabbit platelet assessed as LDH release; assay type: cell-based, Oryctolagus cuniculus; set-up: concentration or dose not given beside the values
[5] = system: Raji; test: Inhibition of 12-O-tetradecanoylphorbol-13-acetate induced EBV-early antigen activation in human Raji cells assessed as EA activation at 500 molar ratio after 48 hrs relative to TPA; assay type: cell-based; set-up: scale not given: the % may be the effect or the level left; details: human gammaherpesvirus 4
[6] = system: Platelet; test: Inhibition of U46619-induced platelet aggregation in citreated rabbit platelet-rich plasma by turbidimetric method; assay type: functional; details: Oryctolagus cuniculus
[7] = system: Raji; test: Inhibition of 12-O-tetradecanoylphorbol-13-acetate induced EBV-early antigen activation in human Raji cells assessed as EA activation at 10 molar ratio after 48 hrs relative to TPA; assay type: cell-based; set-up: scale not given: the % may be the effect or the level left; details: human gammaherpesvirus 4
[8] = system: Platelet; test: Inhibition of arachidonic acid-induced platelet aggregation in citreated rabbit platelet-rich plasma by turbidimetric method; assay type: functional; details: Oryctolagus cuniculus
[9] = system: Raji; test: Inhibition of 12-O-tetradecanoylphorbol-13-acetate induced EBV-early antigen activation in human Raji cells assessed as EA activation at 1000 molar ratio after 48 hrs relative to TPA; assay type: cell-based; set-up: scale not given: the % may be the effect or the level left; details: human gammaherpesvirus 4
[10] = Cytotoxicity against human Raji cells assessed as cell viability at 1000 molar ratio by trypan blue assay; assay type: cell-based; details: read-out: Activity

Compound	IC50 [2]	IC50 [3]	IC50 [6]	IC50 [8]	Activity [1]	Activity [4]	Activity [5]	Activity [7]	Activity [9]	viability at 1000 molar ratio [10]
CC(C)=CCC(O)[C@@](C)(O)[C@H]1CC[C@]2(C)[C@@H]1CC[C@@H]1[C@@]3(C)CC[C@H](O[C@@H]4O[C@H](CO)[C@@H](O)[C@H](O)[C@H]4O[C@@H]4O[C@@H](C)[C@H](O)[C@@H](O)[C@H]4O)C(C)(C)[C@@H]3C[C@H](O)[C@]12C (some centres undefined) [SAPINMUSAPONIN A]	> 100 µM	> 100 µM	> 100 µM	> 100 µM		62.3%				
CO[C@@H]1O[C@H](C=C(C)C)C[C@H]1[C@@H]1CC[C@]2(C)C3=CC[C@H]4C(C)(C)[C@@H](O[C@@H]5O[C@H](CO)[C@@H](O)[C@H](O)[C@H]5O[C@@H]5O[C@@H](C)[C@H](O)[C@@H](O)[C@H]5O)CC[C@]4(C)[C@H]3CC[C@@]12C [SAPINMUSAPONIN H]	> 100 µM	4.6 µM	16.3 µM	71.5 µM	83.7%	< 10%	54.4%	100%	11%	60%
CC(C)=CC(O)C(O)[C@@](C)(O)[C@H]1CC[C@]2(C)[C@@H]1CC[C@@H]1[C@@]3(C)CC[C@H](O[C@@H]4O[C@H](CO)[C@@H](O)[C@H](O)[C@H]4O[C@@H]4O[C@@H](C)[C@H](O)[C@@H](O)[C@H]4O)C(C)(C)[C@@H]3C[C@H](O)[C@]12C (some centres undefined) [SAPINMUSAPONIN B]	> 100 µM	> 100 µM	> 100 µM	> 100 µM		62.3%				
COC(C)(C)/C=C/C(O)[C@@](C)(O)[C@H]1CC[C@]2(C)[C@@H]1CC[C@@H]1[C@@]3(C)CC[C@H](O[C@@H]4O[C@H](CO)[C@@H](O)[C@H](O)[C@H]4O[C@@H]4O[C@@H](C)[C@H](O)[C@@H](O)[C@H]4O)C(C)(C)[C@@H]3C[C@H](O)[C@]12C (some centres undefined) [SAPINMUSAPONIN D]	> 100 µM	> 100 µM	> 100 µM	> 100 µM		62.3%				
C[C@@H]1O[C@@H](O[C@H]2[C@H](O[C@H]3CC[C@]4(C)[C@H]5CC[C@@H]6[C@@H]([C@](C)(O)C(O)/C=C/C(C)(C)O)CC[C@@]6(C)[C@]5(C)[C@@H](O)C[C@H]4C3(C)C)O[C@H](CO)[C@@H](O)[C@@H]2O)[C@H](O)[C@H](O)[C@H]1O (some centres undefined) [SAPINMUSAPONIN C]	> 100 µM	> 100 µM	> 100 µM	> 100 µM		62.3%				

Now those with a lower IC50 [2], led by results:

IC50 [2]	IC50 [3]	IC50 [6]	IC50 [8]	Compound	Activity [1]	Activity [4]	Activity [5]	Activity [7]	Activity [9]	viability at 1000 molar ratio [10]
41.4 µM	11.8 µM		2.3 µM	CO[C@H]1O[C@H](C=C(C)C)C[C@H]1[C@@H]1CC[C@]2(C)C3=CC[C@H]4C(C)(C)[C@@H](O[C@@H]5O[C@H](CO[C@@H]6O[C@@H](C)[C@H](O)[C@@H](O)[C@H]6O)[C@@H](O)[C@H](O)[C@H]5O[C@@H]5O[C@@H](C)[C@H](O)[C@@H](O)[C@H]5O)CC[C@]4(C)[C@H]3CC[C@@]12C [SAPINMUSAPONIN I]	82.6%	< 10%	60.5%	100%	14.3%	60%
8.9 µM	13.5 µM	5.4 µM	12.5 µM	CO[C@@H]1O[C@H](C=C(C)C)C[C@H]1[C@@H]1CC[C@]2(C)C3=CC[C@H]4C(C)(C)[C@@H](O[C@@H]5O[C@H](CO[C@@H]6O[C@@H](C)[C@H](O)[C@@H](O)[C@H]6O)[C@@H](O)[C@H](O)[C@H]5O)CC[C@]4(C)[C@H]3CC[C@@]12C [SAPINMUSAPONIN G]	83.7%	< 10%	53.9%	100%	9.7%	60%
8.4 µM	7.7 µM	3.4 µM	6.7 µM	CO[C@H]1O[C@H](C=C(C)C)C[C@H]1[C@@H]1CC[C@]2(C)C3=CC[C@H]4C(C)(C)[C@@H](O[C@@H]5O[C@H](CO[C@@H]6O[C@@H](C)[C@H](O)[C@@H](O)[C@H]6O)[C@@H](O)[C@H](O)[C@H]5O)CC[C@]4(C)[C@H]3CC[C@@]12C [SAPINMUSAPONIN F]	82.6%	< 10%	53.6%	100%	9.1%	60%
